# Experimental data reported in patent publication US7279161B2, “Factor IX/factor IXa activating antibodies and antibody derivatives” (Baxter Aktiengesellschaft, priority 1999, dated 2007).
# Test system: FVIII deficient plasma
# Assay: aPTT based one stage clotting assay in FVIII deficient plasma
# Assay type: biochemical, human
# How it was run: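 Test samples preincubated 4 min with FVIII-deficient plasma and aPTT reagent (DAPTTIN or Pathromtin SL), optionally with 50 ng activated FIX; clotting started with 25 mM CaCl2. Read-out is clotting time from start to clot formation, set against FVIII, buffer or scrambled-peptide controls.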
sequence,measurement,setting,value
RRREGGGYYVNWYFDRRR [A1/3],clotting time,"Table 3B, Pathromtin SL, 1 μM, 2.2 nM FIXa, duplicate 2",105.9 s
same,average clotting time,"Table 3B, Pathromtin SL, 1 μM, w/o FIXa",139 s
same,clotting time,"Table 3B, Pathromtin SL, 1 μM, w/o FIXa, duplicate 1",138.3 s
same,clotting time,"Table 3B, Pathromtin SL, 1 μM, w/o FIXa, duplicate 2",138.8 s
same,average clotting time,"Table 3B, Pathromtin SL, 5 μM, 2.2 nM FIXa",88 s
same,clotting time,"Table 3B, Pathromtin SL, 5 μM, 2.2 nM FIXa, duplicate 1",86.6 s
same,clotting time,"Table 3B, Pathromtin SL, 5 μM, 2.2 nM FIXa, duplicate 2",90.2 s
same,average clotting time,"Table 3B, Pathromtin SL, 5 μM, w/o FIXa",154 s
same,clotting time,"Table 3B, Pathromtin SL, 5 μM, w/o FIXa, duplicate 1",152.6 s
same,clotting time,"Table 3B, Pathromtin SL, 5 μM, w/o FIXa, duplicate 2",155.6 s
same,average clotting time,"Table 3B, Pathromtin SL, 10 μM, 2.2 nM FIXa",78 s
same,clotting time,"Table 3B, Pathromtin SL, 10 μM, 2.2 nM FIXa, duplicate 1",76.2 s
same,clotting time,"Table 3B, Pathromtin SL, 10 μM, 2.2 nM FIXa, duplicate 2",79.8 s
same,average clotting time,"Table 3B, Pathromtin SL, 10 μM, w/o FIXa",135 s
same,clotting time,"Table 3B, Pathromtin SL, 10 μM, w/o FIXa, duplicate 1",135.7 s
same,clotting time,"Table 3B, Pathromtin SL, 10 μM, w/o FIXa, duplicate 2",134.6 s
same,average clotting time,"Table 3B, Pathromtin SL, 15 μM, 2.2 nM FIXa",75 s
same,clotting time,"Table 3B, Pathromtin SL, 15 μM, 2.2 nM FIXa, duplicate 1",75.4 s
same,clotting time,"Table 3B, Pathromtin SL, 15 μM, 2.2 nM FIXa, duplicate 2",75.2 s
same,average clotting time,"Table 3B, Pathromtin SL, 15 μM, w/o FIXa",151 s
same,clotting time,"Table 3B, Pathromtin SL, 15 μM, w/o FIXa, duplicate 1",152.8 s
same,clotting time,"Table 3B, Pathromtin SL, 15 μM, w/o FIXa, duplicate 2",149.3 s
same,average clotting time,"Table 4, 1.25 μM, 2.2 nM FIXa",95 s
same,clotting time,"Table 4, 1.25 μM, 2.2 nM FIXa, duplicate 1",94.4 s
same,clotting time,"Table 4, 1.25 μM, 2.2 nM FIXa, duplicate 2",95 s
same,average clotting time,"Table 4, 1.25 μM, w/o FIXa",107 s
same,clotting time,"Table 4, 1.25 μM, w/o FIXa, duplicate 1",106.7 s
same,clotting time,"Table 4, 1.25 μM, w/o FIXa, duplicate 2",107 s
same,average clotting time,"Table 4, 2.5 μM, 2.2 nM FIXa",93 s
same,clotting time,"Table 4, 2.5 μM, 2.2 nM FIXa, duplicate 1",93.6 s
same,clotting time,"Table 4, 2.5 μM, 2.2 nM FIXa, duplicate 2",93.3 s
same,average clotting time,"Table 4, 2.5 μM, w/o FIXa",108 s
same,clotting time,"Table 4, 2.5 μM, w/o FIXa, duplicate 1",107.9 s
same,clotting time,"Table 4, 2.5 μM, w/o FIXa, duplicate 2",107.6 s
same,average clotting time,"Table 4, 5 μM, 2.2 nM FIXa",89 s
same,clotting time,"Table 4, 5 μM, 2.2 nM FIXa, duplicate 1",89.7 s
same,clotting time,"Table 4, 5 μM, 2.2 nM FIXa, duplicate 2",88.3 s
same,average clotting time,"Table 4, 5 μM, w/o FIXa",108 s
same,clotting time,"Table 4, 5 μM, w/o FIXa, duplicate 1",108.4 s
same,clotting time,"Table 4, 5 μM, w/o FIXa, duplicate 2",107.7 s
same,average clotting time,"Table 4, 7.5 μM, 2.2 nM FIXa",81 s
same,clotting time,"Table 4, 7.5 μM, 2.2 nM FIXa, duplicate 1",80.7 s
same,clotting time,"Table 4, 7.5 μM, 2.2 nM FIXa, duplicate 2",80.5 s
same,average clotting time,"Table 4, 7.5 μM, w/o FIXa",105 s
same,clotting time,"Table 4, 7.5 μM, w/o FIXa, duplicate 1",105.2 s
same,clotting time,"Table 4, 7.5 μM, w/o FIXa, duplicate 2",105.2 s
same,average clotting time,"Table 4, 10 μM, 2.2 nM FIXa",73 s
same,clotting time,"Table 4, 10 μM, 2.2 nM FIXa, duplicate 1",72 s
same,clotting time,"Table 4, 10 μM, 2.2 nM FIXa, duplicate 2",73.2 s
same,average clotting time,"Table 4, 10 μM, w/o FIXa",104 s
same,clotting time,"Table 4, 10 μM, w/o FIXa, duplicate 1",104.4 s
same,clotting time,"Table 4, 10 μM, w/o FIXa, duplicate 2",104.5 s
same,average clotting time,"Table 4, 12.5 μM, 2.2 nM FIXa",67 s
same,clotting time,"Table 4, 12.5 μM, 2.2 nM FIXa, duplicate 1",65 s
same,clotting time,"Table 4, 12.5 μM, 2.2 nM FIXa, duplicate 2",68 s
same,average clotting time,"Table 4, 12.5 μM, w/o FIXa",100 s
same,clotting time,"Table 4, 12.5 μM, w/o FIXa, duplicate 1",99.4 s
same,clotting time,"Table 4, 12.5 μM, w/o FIXa, duplicate 2",100.5 s
same,average clotting time,"Table 4, 15 μM, 2.2 nM FIXa",56 s
same,clotting time,"Table 4, 15 μM, 2.2 nM FIXa, duplicate 1",56.1 s
same,clotting time,"Table 4, 15 μM, 2.2 nM FIXa, duplicate 2",55.5 s
same,average clotting time,"Table 4, 15 μM, w/o FIXa",78 s
same,clotting time,"Table 4, 15 μM, w/o FIXa, duplicate 1",77.8 s
same,clotting time,"Table 4, 15 μM, w/o FIXa, duplicate 2",78 s
